One data set concerns the target SARS-CoV-2 M^pro (Severe acute respiratory syndrome coronavirus 2, UniProt P0DTD1). Kind of data set: biochemical. The data set is classed as biochemical.
The nature of data set [1]: Thermodynamic aqueous solubility, shake-flask. The data set is classed as physicochemical. As to conditions: 48 h. As for the experimental part:
The calibration and measurement (after 48 h of stirring) were performed on the same day.

Data set [2] concerns SARS-CoV-2 replicon. Kind of data set: microbe, parasite or virus in culture. The data set is classed as cell-based. As to conditions: for IC50: read-out: calculated IC50, compound alone.
Data set [3] relates to normal human bronchial epithelial cells (NHBE). As to conditions: cited from earlier work.
The test system of data set [4] is SARS-CoV-2 replicon. The class given is cell-based.
The subject of data set [5] is Vero E6 cells. As to conditions: cited from earlier work.
A short description of a further data set: PAMPA assay. As to conditions: PBS pH 7.4, 5% DMSO, 18 hours, room temperature. (In general: The PAMPA barrier holds no transporters, so it reflects passive diffusion.)
Data set [6] relates to normal human bronchial epithelial cells (NHBE). As to conditions: for CC50: human.
Data set [7] concerns panel of 35 targets including CYP450 isoforms, ions channels, receptors. Kind of data set: In vitro pharmacological profiling against targets for adverse drug reactions. As to conditions: percentage inhibition at 10 μM. As for the experimental part: (§1) Rows represent compounds tested and columns represent targets. Percentage inhibition at 10 μM concentration of the compounds is color-coded. A panel of 35 targets including CYP450 isoforms, ions channels, receptors examined for off-target effects.

Data set [8] has as its system Vero E6 cells. As to conditions: African green monkey.
Another data set addresses HERG ion channel (Homo sapiens, UniProt Q12809). Put plainly: In vitro pharmacological profiling, HERG. As to conditions: at high concentrations. As for the experimental part: as §1
In a further data set the test system is SARS-CoV-2 replication. Kind of data set: Serum and lung tissue extracts tested on SARS-CoV-2 replication in cell culture. The data set is classed as cell-based. As to conditions: extracts of mice dosed with compound 61.
Setting [9] is: Britton-Robinson buffer pH 6.5, shake-flask, 21-22° C.
Where [10] appears, read: read-out: CC50 NHBE, Table 3, marked g: Zhang et al., ACS Cent. Sci. 2021.
[11] abbreviates: 13 combined with remdesivir, MacSynergy II.
Where [12] appears, read: read-out: CC50 Vero E6, Table 3, marked g: Zhang et al., ACS Cent. Sci. 2021.

Structures are written as SMILES. Read-outs that look alike come from different tables or passages of the source.

Chain of HERG ion channel (Q12809 whole entry): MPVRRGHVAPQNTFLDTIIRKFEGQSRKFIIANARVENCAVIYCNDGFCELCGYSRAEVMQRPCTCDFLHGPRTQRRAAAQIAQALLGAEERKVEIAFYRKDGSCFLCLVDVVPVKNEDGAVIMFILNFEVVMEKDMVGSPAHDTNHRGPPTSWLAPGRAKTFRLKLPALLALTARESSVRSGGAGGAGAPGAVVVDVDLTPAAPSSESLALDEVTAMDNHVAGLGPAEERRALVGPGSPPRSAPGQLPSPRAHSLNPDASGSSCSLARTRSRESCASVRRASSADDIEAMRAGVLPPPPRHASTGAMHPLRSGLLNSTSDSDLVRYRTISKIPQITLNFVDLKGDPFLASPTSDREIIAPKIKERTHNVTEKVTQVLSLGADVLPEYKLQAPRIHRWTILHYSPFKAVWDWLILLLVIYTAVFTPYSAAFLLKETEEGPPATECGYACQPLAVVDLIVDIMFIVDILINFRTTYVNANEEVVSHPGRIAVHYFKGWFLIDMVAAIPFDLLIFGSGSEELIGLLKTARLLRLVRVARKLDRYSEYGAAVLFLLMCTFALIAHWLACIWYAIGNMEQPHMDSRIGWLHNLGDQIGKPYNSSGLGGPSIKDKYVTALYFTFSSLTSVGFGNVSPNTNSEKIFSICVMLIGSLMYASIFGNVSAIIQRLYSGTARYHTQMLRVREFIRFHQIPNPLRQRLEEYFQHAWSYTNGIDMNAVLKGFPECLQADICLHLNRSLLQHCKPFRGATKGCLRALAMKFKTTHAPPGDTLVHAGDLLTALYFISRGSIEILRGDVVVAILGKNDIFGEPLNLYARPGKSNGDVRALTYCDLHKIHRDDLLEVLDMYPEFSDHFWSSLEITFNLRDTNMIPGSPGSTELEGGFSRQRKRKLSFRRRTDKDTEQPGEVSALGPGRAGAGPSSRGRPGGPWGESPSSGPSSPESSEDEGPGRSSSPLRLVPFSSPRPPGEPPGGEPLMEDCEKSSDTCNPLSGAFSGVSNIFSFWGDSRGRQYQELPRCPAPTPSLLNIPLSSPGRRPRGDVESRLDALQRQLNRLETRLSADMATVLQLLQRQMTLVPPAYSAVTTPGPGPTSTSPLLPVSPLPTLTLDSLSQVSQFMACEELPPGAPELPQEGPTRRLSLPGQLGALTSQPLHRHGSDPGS

In turn, `O=c1ccn(-c2cc(-c3ccccc3)c(=O)n(-c3cccnc3)c2)c(=O)[nH]1` [Cmpd 1] came in with an IC50 on SARS-CoV-2 M^pro (Table 4) of 100 µM.
Same read-out and setting: with `N#Cc1ccccc1-c1cc(-c2cccc(Cl)c2)c(=O)n(-c2ccc[n+]([O-])c2)c1` [Cmpd 10] the figure was 15.6 ± 2.37 µM.
The same measure, in the same setting: next, `N#Cc1ccccc1-c1cc(-c2cc(Cl)cc(Cl)c2)c(=O)n(-c2ccc[n+]([O-])c2)c1` [Cmpd 11]: 5 to 20 µM; `N#Cc1cccc(-c2cc(-c3c[nH]c(=O)[nH]c3=O)cn(-c3cccnc3)c2=O)c1` [Cmpd 19]: around 10 µM; `COc1cc(F)cc(-c2cc(-c3c[nH]c(=O)[nH]c3=O)cn(-c3cccnc3)c2=O)c1` [Cmpd 20]: 10 to 100 µM.
On the same count and under the same terms, next, `COc1ccc(-c2cc(-c3cccc(Cl)c3)c(=O)n(-c3cccnc3)c2)c(C#N)n1` [Cmpd 22]: 10 to 100 µM; `N#Cc1[nH]c(=O)ccc1-c1cc(-c2cccc(Cl)c2)c(=O)n(-c2cccnc2)c1` [Cmpd 23]: around 10 µM.
Regarding `COc1cc(CCOc2cc(Cl)cc(-c3cc(-c4ccccc4C#N)cn(-c4cccnc4)c3=O)c2)cc(OC)c1` [Cmpd 30], the IC50 against SARS-CoV-2 M^pro (Table 4) is above 1 µM.
Still for that read-out and setting: with `CCNC(=O)COc1cc(Cl)cc(-c2cc(-c3ccccc3C#N)cn(-c3cccnc3)c2=O)c1` [Cmpd 33] the figure was 0.5 to 1 µM.
The compound `Cc1ocnc1COc1cc(Cl)cc(-c2cc(-c3c[nH]c(=O)[nH]c3=O)cn(-c3cccnc3)c2=O)c1` [Cmpd 49] gave an aq. sol. in data set [1] (setting [9]) of 7.6 ± 0.7 µg/mL.
As to `O=c1ccn(-c2cc(-c3cc(Cl)cc(OCC4CC4)c3)c(=O)n(-c3cccnc3)c2)c(=O)[nH]1` [Cmpd 54], the IC50 at SARS-CoV-2 M^pro (Table 4) was 1.2 ± 0.1 µM.
Still for that read-out and setting: next, `O=c1c(-c2cc(Cl)cc(OCC3CC3)c2)cc(-c2ccc(F)cc2F)cn1-c1cccnc1` [Cmpd 55]: around 10 µM.
For `N#Cc1ccc(F)cc1-c1cc(-c2cc(Cl)cc(OCC3CC3)c2)c(=O)n(-c2cccnc2)c1` [Cmpd 56], 0.427 ± 0.027 µM corresponded to half-maximal inhibition at SARS-CoV-2 M^pro (Table 4) (IC50).
As for `CN(C)c1ccc(C#N)c(-c2cc(-c3cc(Cl)cc(OCC4CC4)c3)c(=O)n(-c3cccnc3)c2)c1` [Cmpd 58], half-maximal inhibition at SARS-CoV-2 M^pro (Table 4) (IC50) was put at 1.3 ± 0.2 µM.
The same measure, in the same setting: next, `Cn1ccnc1COc1cc(Cl)cc(-c2cc(-c3ccccc3C#N)cn(-c3cccnc3)c2=O)c1` [Cmpd 59]: around 0.194 µM.
`Cn1cc(-c2cc(-c3cc(Cl)cc(OCc4ocnc4C(F)(F)F)c3)c(=O)n(-c3cccnc3)c2)c(=O)[nH]c1=O` [Cmpd 65]: the aq. sol. in [1] (setting [9]) worked out at 34.5 ± 0.3 µg/mL.
On to `O=c1[nH]cc(-c2cc(-c3cc(Cl)cc(OCC4CC4)c3)c(=O)n(-c3cncc4ccccc34)c2)c(=O)[nH]1` [Cmpd 66], for which the IC50 against SARS-CoV-2 M^pro (Table 4) amounted to 0.04 ± 0.002 µM.
`N#Cc1ccccc1-c1cc(-c2cc(Cl)cc(Cl)c2)c(=O)n(-c2cccnc2)c1` [Compound 9, 2-(3-(3,5-Dichlorophenyl)-2-oxo-2H-[1,3′-bipyridin]-5-yl)benzonitrile]: the IC50 in the data set on SARS-CoV-2 replicon [2] (Severe acute respiratory syndrome coronavirus 2, BHK) is 0.0938 µM.
With `CCCOc1cc(Cl)cc(-c2cc(-c3ccccc3C#N)cn(-c3cccnc3)c2=O)c1` [Compound 13, 2-(3-(3-Chloro-5-propoxyphenyl)-2-oxo-2H-[1,3′-bipyridin]-5-yl)benzonitrile], the CC50 in data set [3] (setting [10]) was 20 ± 2 µM. In addition, the “factor of improvement in potency over 9” value on SARS-CoV-2 M^pro (IC50 of 13 versus 9) is “ca. 30”. In the data set on SARS-CoV-2 replicon [4] (setting [11]), the mean antagonism volume stood at 0 M^2% and the mean synergy volume is recorded as 30.8 M^2%. The “combination behavior with remdesivir” value in the data set on SARS-CoV-2 replicon [4] (range of combinations of 13 and remdesivir, FIG. 3) is listed as “statistically significant synergistic behavior”. Further, the CC50 in the data set on Vero E6 cells [5] (setting [12]) is 22 ± 7.2 µM.
As to `O=c1[nH]cc(-c2cc(-c3cc(Cl)cc(OCc4ccccc4)c3)c(=O)n(-c3cccnc3)c2)c(=O)[nH]1` [Compound 21], the IC50 at SARS-CoV-2 M^pro (read-out: IC50 (μM), inhibition of SARS-CoV-2 M^pro, Table 1 and text, 100 nM M^pro, FRET substrate, triplicate) came to 0.128 µM.
With `N#Cc1ccccc1-c1cc(-c2cc(Cl)cc(OCC3CC3)c2)c(=O)n(-c2cccnc2)c1` [Compound 39, 2-(3-(3-Chloro-5-(cyclopropylmethoxy)phenyl)-2-oxo-2H-[1,3′-bipyridin]-5-yl)benzonitrile], the CC50 (in data set [3]; in the data set with Vero E6 cells [5]) was above 100 µM throughout. The PAMPA permeability in “PAMPA assay” is given as 4.27 ± 0.07 10^−6 cm/s. For the same compound, in data set [1] (setting [9]), the aq. sol. is 3 ± 2 µg/mL.
For the compound `N#Cc1ccccc1-c1cc(-c2cc(Cl)cc(OCCC(F)(F)F)c2)c(=O)n(-c2cccnc2)c1` [Compound 47, 2-(3-(3-Chloro-5-(3,3,3-trifluoropropoxy)phenyl)-2-oxo-2H-[1,3′-bipyridin]-5-yl)benzonitrile], the “cytotoxicity towards NHBE cells” value in data set [6] is “more cytotoxic”.
On to `O=c1[nH]cc(-c2cc(-c3cc(Cl)cc(OCc4ccc(F)cc4Cl)c3)c(=O)n(-c3cccnc3)c2)c(=O)[nH]1` [Compound 48, 5-(3-(3-Chloro-5-((2-chloro-4-fluorobenzyl)oxy)phenyl)-2-oxo-2H-[1,3′-bipyridin]-5-yl)pyrimidine-2,4(1H,3H)-dione], for which the CC50 in data set [3] is 25 ± 5 µM; with Vero E6 cells [5], 22 ± 8 µM. In addition, the EC50 in the data set with SARS-CoV-2 replicon [2] (Table 3) was 120 ± 0.2 µM. Besides, the aq. sol. in data set [1] (pH 6.5) is 25.0 ± 0.1 µg/mL.
Take `Cn1cc(-c2cc(-c3cc(Cl)c(F)c(OCc4ccccc4Cl)c3)c(=O)n(-c3cccnc3)c2)c(=O)[nH]c1=O` [Compound 61]: the “off-target effects” value in data set [7] is given as “no significant off-target effects”. Also, the CC50 with Vero E6 cells [8] was above 32.5 µM; in the data set “in vitro”, above 32 µM; in data set [6], above 32.5 µM. Moreover, at HERG ion channel, the “inhibition of HERG ion channel” value was “minimal inhibition”. Also, the “combination effect with EIDD-1931” value in the data set with SARS-CoV-2 replicon [4] (combination of EIDD-1931 and compound 61, FIG. 6) is given as “synergistic effect”. The compound further came in with an aq. sol. in data set [1] (setting [9]) of 116.5 ± 8.8 µg/mL. For the same compound, the “inhibition of SARS-CoV-2 replication by serum and lung tissue extracts” value in the data set with SARS-CoV-2 replication is “exhibited inhibition”.
Take `O=c1nc(NO)ccn1[C@@H]1O[C@H](CO)[C@@H](O)[C@H]1O` [EIDD-1931, reference compound]: in the data set on SARS-CoV-2 replicon [2], the IC50 is 2.23 µM.
With `O=c1[nH]cc(-c2cc(-c3cc(Cl)c(F)c(OCc4ccccc4Cl)c3)c(=O)n(-c3cccnc3)c2)c(=O)[nH]1` [compound 43], the CC50 in the data set on Vero E6 cells [8] is above 80 µM; in data set [6], above 95 µM. Besides, in “PAMPA assay”, the PAMPA permeability was 0.73 ± 0.05 10^−6 cm/s. The compound further displayed an aq. sol. in data set [1] (setting [9]) of 21.8 ± 0.9 µg/mL.
With `Cc1ocnc1COc1cc(Cl)cc(-c2cc(-c3ccccc3C#N)cn(-c3cccnc3)c2=O)c1` [compound 50], the PAMPA permeability in “PAMPA assay” was 3.04 ± 0.09 10^−6 cm/s. Moreover, the aq. sol. in data set [1] (setting [9]) was determined as 13.1 ± 0.3 µg/mL.
In the case of `Cc1scnc1COc1cc(Cl)cc(-c2cc(-c3c[nH]c(=O)[nH]c3=O)cn(-c3cccnc3)c2=O)c1` [compound 51], the CC50 with Vero E6 cells [8] is above 100 µM; in data set [6] it was 22 µM.
On to `Cn1cc(-c2cc(-c3cc(Cl)cc(OCC4CC4)c3)c(=O)n(-c3cccnc3)c2)c(=O)[nH]c1=O` [compound 57], for which the values for the CC50 (in the data set with Vero E6 cells [8]; in data set [6]) were 82 µM and above 100 µM, respectively. This compound also registered an aq. sol. in data set [1] (setting [9]) of 14.2 ± 0.7 µg/mL.
For `Cn1cc(-c2cc(-c3cc(Cl)cc(OCCC(F)(F)F)c3)c(=O)n(-c3cccnc3)c2)c(=O)[nH]c1=O` [compound 60] the same measures were above 100 µM, around 95 µM and 57.0 ± 0.4 µg/mL.
For `O=c1[nH]cc(-c2cc(-c3cc(Cl)cc(OCc4ocnc4C(F)(F)F)c3)c(=O)n(-c3cccnc3)c2)c(=O)[nH]1` [compound 62], the CC50 (with Vero E6 cells [8]; in data set [6]) was above 100 µM in each case. In “PAMPA assay”, the PAMPA permeability is on record as 0.57 ± 0.09 10^−6 cm/s.
For `O=c1[nH]cc(-c2cc(-c3cc(Cl)cc(OCc4scnc4C(F)(F)F)c3)c(=O)n(-c3cccnc3)c2)c(=O)[nH]1` [compound 63], the CC50 (in the data set on Vero E6 cells [8]; in data set [6]) was above 100 µM throughout.
On to `Cn1cc(-c2cc(-c3cc(Cl)cc(OCc4scnc4C(F)(F)F)c3)c(=O)n(-c3cccnc3)c2)c(=O)[nH]c1=O` [compound 64], for which the CC50 (with Vero E6 cells [8]; in data set [6]) was above 100 µM in each case. In addition, the PAMPA permeability in “PAMPA assay” is listed as 1.16 ± 0.32 10^−6 cm/s. The aq. sol. in [1] (setting [9]) was 24.8 ± 1.4 µg/mL.
Regarding `CCC(CC)COC(=O)[C@H](C)N[P@](=O)(OC[C@H]1O[C@@](C#N)(c2ccc3c(N)ncnn23)[C@H](O)[C@@H]1O)Oc1ccccc1` [remdesivir, reference compound], the CC50 in [3] (setting [10]) was 41 ± 2 µM; in the data set on Vero E6 cells [5] (setting [12]), 72 ± 28 µM.

By IC50 is commonly meant the concentration that gives 50% inhibition. The EC50 is the concentration at which the effect is half-maximal.

(Values after US20250312345A1, “NON-COVALENT INHIBITORS OF THE MAIN PROTEASE OF SARS-COV-2 AND METHODS OF USE” (YALE UNIVERSITY, priority 2022, published 2025).)
